Series [1] has as its target T1, Cytochrome P450 2C9 (Homo sapiens, UniProt P11712). Kind of series: Activity of recombinant human CYP2C9 expressed in microsomes isolated from baculovirus infected insect cell assessed as enzyme-mediated 2-(2-((R)-3-((1-(carboxymethyl)cyclopropyl)methylthio)-3-(3-(2-(7-chloroquinolin-2-yl)vinyl)phenyl)propyl)phenyl)-2-hydroxypropanoic acid formation at 0.02 uM after 30 mins by LC-MS analysis. The class given is ADME. As to conditions: 0.5 h.

Series [2] has as its target T2, Cytochrome P450 2B6 (Homo sapiens, UniProt P20813).
T2 sequence (P20813 whole entry): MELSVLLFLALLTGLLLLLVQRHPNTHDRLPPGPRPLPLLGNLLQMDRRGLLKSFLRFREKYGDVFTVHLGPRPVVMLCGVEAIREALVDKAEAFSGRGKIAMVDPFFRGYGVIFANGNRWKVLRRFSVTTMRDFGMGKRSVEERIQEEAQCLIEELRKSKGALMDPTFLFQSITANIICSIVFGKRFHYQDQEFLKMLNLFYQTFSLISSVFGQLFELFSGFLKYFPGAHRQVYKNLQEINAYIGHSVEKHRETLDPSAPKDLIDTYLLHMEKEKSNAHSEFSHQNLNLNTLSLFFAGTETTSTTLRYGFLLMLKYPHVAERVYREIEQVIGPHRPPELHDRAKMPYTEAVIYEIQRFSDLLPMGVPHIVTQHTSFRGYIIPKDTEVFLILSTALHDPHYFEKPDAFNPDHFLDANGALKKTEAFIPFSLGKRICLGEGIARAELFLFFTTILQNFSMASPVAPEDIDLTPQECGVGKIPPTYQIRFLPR
Kind of series: Activity of recombinant human CYP2B6 expressed in microsomes isolated from baculovirus infected insect cell assessed as enzyme-mediated 2-(2-((R)-3-((1-(carboxymethyl)cyclopropyl)methylthio)-3-(3-(2-(7-chloroquinolin-2-yl)vinyl)phenyl)propyl)phenyl)-2-hydroxypropanoic acid formation at 1 uM after 30 mins by LC-MS analysis. The class given is ADME. As to conditions: 0.5 h.

Series [3] addresses Cytochrome P450 2D6 (Homo sapiens, UniProt P10635). Kind of series: Activity of recombinant human CYP2D6 expressed in microsomes isolated from baculovirus infected insect cell assessed as enzyme-mediated 2-(2-((R)-3-((1-(carboxymethyl)cyclopropyl)methylthio)-3-(3-(2-(7-chloroquinolin-2-yl)vinyl)phenyl)propyl)phenyl)-2-hydroxypropanoic acid formation at 1 uM after 30 mins by LC-MS analysis. The class given is ADME. As to conditions: 0.5 h.

For series [4], the target named is T3, Cytochrome P450 2C8 (Homo sapiens, UniProt P10632).
T3 sequence (P10632 whole entry): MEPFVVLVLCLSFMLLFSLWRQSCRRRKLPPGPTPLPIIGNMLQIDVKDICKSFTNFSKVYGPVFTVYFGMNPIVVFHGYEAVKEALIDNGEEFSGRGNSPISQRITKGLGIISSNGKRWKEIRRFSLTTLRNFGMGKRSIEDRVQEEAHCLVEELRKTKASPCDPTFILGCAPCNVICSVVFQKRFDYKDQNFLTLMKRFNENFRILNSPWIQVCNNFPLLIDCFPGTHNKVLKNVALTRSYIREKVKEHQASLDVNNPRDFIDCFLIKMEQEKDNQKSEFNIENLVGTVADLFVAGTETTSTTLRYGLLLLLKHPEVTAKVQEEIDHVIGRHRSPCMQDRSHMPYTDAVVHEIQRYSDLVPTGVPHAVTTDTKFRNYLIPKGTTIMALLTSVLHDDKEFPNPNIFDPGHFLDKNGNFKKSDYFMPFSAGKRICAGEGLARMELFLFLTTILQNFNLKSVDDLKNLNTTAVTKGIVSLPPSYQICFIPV
Briefly: Activity of recombinant human CYP2C8 expressed in microsomes isolated from baculovirus infected insect cell assessed as enzyme-mediated compound formation treated with montelukast at 0.02 to 0.1 uM after 3 mins by LC-MS analysis. The class given is ADME. As to conditions: 0.05 h.

Series [5] concerns the target T1, Cytochrome P450 2C9. Briefly: Activity of recombinant human CYP2C9 expressed in microsomes isolated from baculovirus infected insect cell assessed as enzyme-mediated compound formation treated with montelukast at 1 uM after 60 mins by LC-MS analysis. It is filed as ADME. As to conditions: 1 h.
The subject of series [6] is Liver microsome. Briefly: Drug metabolism in human liver microsomes assessed as 2-(1-(((1R)-1-(3-(2-(7-chloroquinolin-2-yl)vinyl)phenyl)-3-hydroxy-3-(2-(2-hydroxypropan-2-yl)phenyl)propylthio)methyl)cyclopropyl)acetic acid formation at 0.1 uM after 12 mins by LC-MS analysis in presence of 2-(1-(((S)-1-(3-(2-(7-chloroquinolin-2-yl)vinyl)phenyl)-3-(2-(2-hydroxypropan-2-yl)phenyl)propylsulfinyl)methyl)cyclopropyl)acetic acid. As to conditions: 0.2 h. It is filed as ADME.

The nature of series [7]: Plasma clearance in human at 3 to 18 mg, iv. The class given is ADME, organism-based.
Series [8] has as its system Liver microsome. Kind of series: Drug metabolism in human liver microsomes at 1 to 10 uM preincubated for 3 mins followed by beta-NADPH addition by LC-MS analysis in presence of albumin. It is filed as ADME. A general note: Liver microsomes are vesicles of endoplasmic reticulum, rich in cytochrome P450 enzymes.
In series [9] the test system is Liver microsome. Kind of series: Drug metabolism in human liver microsomes assessed as 2-(1-(((1R)-1-(3-(2-(7-chloroquinolin-2-yl)vinyl)phenyl)-3-hydroxy-3-(2-(2-hydroxypropan-2-yl)phenyl)propylthio)methyl)cyclopropyl)acetic acid formation at 0.02 to 0.4 uM preincubated for 3 mins followed by beta-NADPH addition by LC-MS analysis. It is filed as ADME.
The test system of series [10] is Liver microsome. Kind of series: Drug metabolism in human liver microsomes assessed as 2-(1-(((1R)-1-(3-(2-(7-chloroquinolin-2-yl)vinyl)phenyl)-3-hydroxy-3-(2-(2-hydroxypropan-2-yl)phenyl)propylthio)methyl)cyclopropyl)acetic acid formation at 0.4 uM after 15 mins by LC-MS analysis in presence of CYP3A4 inhibitor ketoconazole and troleandomycin. As to conditions: 0.25 h. It is filed as ADME.

In series [11] the test system is Liver microsome. Briefly: Drug metabolism in human liver microsomes assessed as 2-(1-(((S)-1-(3-(2-(7-chloroquinolin-2-yl)vinyl)phenyl)-3-(2-(2-hydroxypropan-2-yl)phenyl)propylsulfinyl)methyl)cyclopropyl)acetic acid formation at 0.02 to 0.4 uM preincubated for 3 mins followed by beta-NADPH addition by LC-MS analysis. It is filed as ADME.
In series [12] the test system is Liver microsome. Kind of series: Drug metabolism in human liver microsomes assessed as 2-(1-(((1R)-1-(3-(2-(7-chloroquinolin-2-yl)vinyl)phenyl)-3-hydroxy-3-(2-(2-hydroxypropan-2-yl)phenyl)propylthio)methyl)cyclopropyl)acetic acid formation at 0.4 uM after 15 mins by LC-MS analysis in presence of CYP1A2 inhibitor furafylline, CYP2B6 inhibitor clopidogrel, CYP2D6 inhibitor quinidine and CYP2C9 inhibitor sulfaphenazole. The class given is ADME. As to conditions: 0.25 h.

The structures appear in SMILES notation.

T1 sequence (P11712 whole entry): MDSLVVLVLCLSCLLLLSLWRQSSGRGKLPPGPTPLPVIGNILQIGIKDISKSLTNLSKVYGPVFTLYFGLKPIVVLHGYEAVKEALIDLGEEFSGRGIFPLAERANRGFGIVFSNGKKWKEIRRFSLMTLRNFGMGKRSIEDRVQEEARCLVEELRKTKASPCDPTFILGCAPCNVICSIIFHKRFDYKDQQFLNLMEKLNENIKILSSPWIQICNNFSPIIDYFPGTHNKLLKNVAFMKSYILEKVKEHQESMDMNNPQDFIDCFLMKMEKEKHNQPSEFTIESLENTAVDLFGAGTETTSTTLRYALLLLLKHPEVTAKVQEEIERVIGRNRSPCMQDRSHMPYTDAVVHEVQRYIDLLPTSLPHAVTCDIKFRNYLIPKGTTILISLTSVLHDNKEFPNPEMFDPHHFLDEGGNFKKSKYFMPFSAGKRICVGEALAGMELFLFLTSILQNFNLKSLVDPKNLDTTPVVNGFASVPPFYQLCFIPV
Sequence of Cytochrome P450 2D6 (P10635 whole entry): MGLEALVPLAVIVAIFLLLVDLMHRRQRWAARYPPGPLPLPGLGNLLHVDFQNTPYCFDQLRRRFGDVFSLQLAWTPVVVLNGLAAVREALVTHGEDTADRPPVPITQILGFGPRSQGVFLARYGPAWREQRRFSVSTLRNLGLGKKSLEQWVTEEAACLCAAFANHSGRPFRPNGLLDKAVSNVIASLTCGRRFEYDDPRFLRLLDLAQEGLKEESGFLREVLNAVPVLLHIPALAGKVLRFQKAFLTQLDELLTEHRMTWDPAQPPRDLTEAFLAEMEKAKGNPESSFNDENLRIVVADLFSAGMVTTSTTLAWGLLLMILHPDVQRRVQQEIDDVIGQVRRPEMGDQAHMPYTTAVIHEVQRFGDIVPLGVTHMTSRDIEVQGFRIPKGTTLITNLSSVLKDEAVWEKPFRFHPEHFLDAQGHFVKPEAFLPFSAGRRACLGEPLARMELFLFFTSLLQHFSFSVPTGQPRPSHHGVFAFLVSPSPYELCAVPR

Take `CC(O)(CO)c1ccccc1CC[C@@H](SCC1(CC(=O)O)CC1)c1cccc(/C=C/c2ccc3ccc(Cl)cc3n2)c1` (some centres not stated): the Drug metabolism entry in [1] is given as “metabolite_not_detected”; in [2], “metabolite_not_detected”; in [3] it was “metabolite_not_detected”; in series [4], “metabolite_detected”; in series [5], “metabolite_detected”.
`CC(C)(O)c1ccccc1CC[C@@H](SCC1(CC(=O)[O-])CC1)c1cccc(/C=C/c2ccc3ccc(Cl)cc3n2)c1.[Na+]` [MONTELUKAST SODIUM]: the Drug metabolism entry in [6] is recorded as “metabolite_detected”; in series [8], “metabolite_not_detected”; in series [9], “metabolite_detected”; in [10] it was “metabolite_not_detected”; in series [11], “metabolite_detected”; in series [12], “metabolite_detected”. Moreover, the clearance in series [7] stood at 0.578 mL/min/kg.

The clearance is the rate of elimination divided by the concentration.
